This assay has as its target T1, human MRGPR X4 (Homo sapiens, UniProt Q96LA9).
T1 construct: expressed in transfected cells
Description: MRGPR X4 antagonist activity, IP-One Gq HTRF assay in stably transfected HEK cells. In kind it is cell-based. The procedure:
HEK cells stably transfected to express human MIRGPR X4 were maintained in an incubator at 37° C. with 5% CO2 and grown in DMEM media with 10% fetal bovine serum (FBS) and […] each of sodium pyruvate, Glutamax, penicillin/streptomycin, and Geneticin. HEK cells stably transfected to express mouse MRGPR A1 were maintained in the same incubator and grown in DMEM media with 10% FBS, 1% each of sodium pyruvate, Glutamax, penicillin/streptomycin, Geneticin, and 2.2 mg/mL Hygromycin.
Cells were plated in a 384-well assay plate at 20,000 cells per well in 12 μL of Opti-MEM and kept in an incubator overnight. On the day of the assay, compounds solubilized at 10 mM in DMSO were added as a 10-point curve (10 uM final top concentration with 1:3 serial dilutions) using a Tecan D300E digital dispenser. Agonists were diluted in assay buffer (final concentrations of 5.7 mM Tris-HCl, 43 mM NaCl, 50 mM LiCl, pH=8) and 2 μL of the appropriate agonist are added to each well. Final concentrations of agonists were 10 μM bilirubin, 20 μM deoxycholic acid, or 100 μM conjugated bilirubin (obtained from Lee Biosolutions, catalog #910-12). Final concentrations of DMSO were kept consistent across the plate. Plates were incubated in the dark for 1 h at 37° C. and then for 30 minutes at room temperature. IP-1 standards and HTRF detection reagents were added according to the IP-One—Gq Kit purchased from Cisbio (part number 62IPAPEJ) and incubated in the dark for 1 h at room temperature. The plate was read on a Molecular Devices SpectraMax iD5 plate reader. The HTRF ratio was calculated from the raw data and graphed using GraphPad Prism to calculate an IC50 value for each compound.
For orientation: In TR-FRET formats the signal depends on donor and acceptor labels being close together.

Setting [1] is: versus 20 μM deoxycholic acid agonist, HEK cells expressing human MRGPR X4, read-out: MRGPRX4 Antagonist Activity.

Structures are written as SMILES. Read-outs that look alike come from different tables or passages of the source.

T1 sequence (Q96LA9 whole entry): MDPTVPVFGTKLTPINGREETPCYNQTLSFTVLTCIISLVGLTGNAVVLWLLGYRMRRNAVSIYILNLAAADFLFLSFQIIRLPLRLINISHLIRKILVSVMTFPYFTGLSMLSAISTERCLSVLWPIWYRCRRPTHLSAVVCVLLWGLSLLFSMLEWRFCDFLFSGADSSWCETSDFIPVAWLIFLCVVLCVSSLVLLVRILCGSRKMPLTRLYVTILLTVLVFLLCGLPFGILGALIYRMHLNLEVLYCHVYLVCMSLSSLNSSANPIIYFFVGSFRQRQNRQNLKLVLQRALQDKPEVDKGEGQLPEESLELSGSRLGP

As for `Cc1cc(S(=O)(=O)NC(=O)c2nn(Cc3ccc(OC(F)F)cc3)c3ccccc23)ccc1Cl` [Compound 303], the IC50 under setting [1] was above 2500 nM.
For the compound `O=C(NCCc1cncc(F)c1)c1cn(Cc2ccc(Cl)cc2)c2ccccc12` [Compound 154], the IC50 was below 100 nM.
`COc1cccc(Cn2nc(C(=O)NCCc3nnc4ccccn34)c3ccccc32)n1` [Compound 434] had an IC50 of 1000 to 2500 nM.
On the same count and under the same terms, the figure for `Cc1ccc(Cn2nc(C(=O)NCCc3cn4c(n3)SCC4)c3ccccc32)cc1` [Compound 41] is 100 to 500 nM.
For `COc1ccc(C)c(S(=O)(=O)NC(=O)c2nn(Cc3cccc(F)c3)c3ccccc23)c1` [Compound 257], the IC50 under setting [1] was above 2500 nM.
`CC(=O)Nc1ccc(CNC(=O)c2nn(Cc3ccc(Cl)cc3)c3ccccc23)cc1` [Compound 374] yielded an IC50 above 2500 nM.
Still for that read-out and setting: with `O=C(NCCc1nnc2ccccn12)c1nn(Cc2ccc(OC(F)F)cc2)c2ccccc12` [Compound 463] the figure was below 100 nM.
Take `CC(C)c1ccccc1S(=O)(=O)NC(=O)c1nn(Cc2ccc(Cl)cc2)c2ccccc12` [Compound 302]: under setting [1], the IC50 was above 2500 nM.
The compound `CC(=O)c1ccc(Cn2nc(C(=O)NCCc3nnc4ccccn34)c3ccccc32)cc1` [Compound 413] had an IC50 of 100 to 500 nM.
With `CCOc1ccc(CCNC(=O)c2nn(Cc3ccc(Cl)cc3)c3ccccc23)cc1` [Compound 365], the IC50 was above 2500 nM.
On the same count and under the same terms, the figure for `Cc1ccc(Cn2nc(C(=O)NCCc3ncon3)c3ccccc32)cc1` [Compound 126] is above 2500 nM.
`O=C(NCCc1nnc2ccccn12)c1nn(Cc2ccc(Cl)cc2)c2cc(Cl)ccc12` [Compound 562] gave an IC50 below 100 nM.
Same read-out and setting: with `N#Cc1ccc(Cn2nc(C(=O)NCCc3nnc4ccccn34)c3ccccc32)cn1` [Compound 464] the figure was 1000 to 2500 nM; with `O=C(NCCc1nnc2ccccn12)c1nn(CCc2ccc(Cl)c(Cl)c2)c2ccccc12` [Compound 505], 1000 to 2500 nM; with `O=C(NCc1ccc(O)cc1)c1nn(Cc2ccc(Cl)cc2)c2ccccc12` [Compound 376], 501 to 1000 nM.
With `O=C(CS(=O)(=O)c1cn(Cc2ccc(Cl)cc2)c2ccccc12)Nc1ccc(Cl)cc1Cl` [Compound 251], the IC50 under setting [1] lay in the range of 1000 to 2500 nM.
For `O=C(NCCc1nnc2ccccn12)c1nn(Cc2ccc(Cl)cc2)c2ccc(Br)cc12` [Compound 529], the IC50 is below 100 nM.
Regarding `Cc1cc(S(=O)(=O)NC(=O)c2nn(Cc3ccc(OC(F)F)cc3)c3ccccc23)ccc1C#N` [Compound 259], under setting [1], the IC50 lay in the range of 100 to 500 nM.
`CC(C)(CNC(=O)c1cn(Cc2cccc(F)c2)c2ccccc12)c1cccnc1` [Compound 213]: the IC50 was 1000 to 2500 nM.
With `O=C(NCCCc1ccncc1)c1nn(Cc2ccc(Cl)cc2)c2ccccc12` [Compound 355], the IC50 was above 2500 nM.
`O=C(NCCc1nnc2ccccn12)c1nn(CC2CCC(F)(F)CC2)c2ccccc12` [Compound 489]: the IC50 lay within 501 to 1000 nM.
On the same count and under the same terms, with `O=C(NCCc1nnc2ccccn12)c1nn(Cc2cnc(C(F)(F)F)s2)c2ccccc12` [Compound 501] the figure was 100 to 500 nM.
On the same count and under the same terms, the figure for `O=C(NCCc1nnc2n1CCCCC2)c1nn(Cc2cccc(F)c2)c2ccccc12` [Compound 58] is 100 to 500 nM; for `COc1ccc(Cn2nc(C(=O)NCCc3nnc4ccccn34)c3ccccc32)nc1` [Compound 448] it is above 2500 nM; for `O=C(NCCc1nnc2ccccn12)c1nn(Cc2cccn3ccnc23)c2ccccc12` [Compound 518] it is 1000 to 2500 nM.
`O=C(NCCc1ccno1)c1nn(Cc2ccc(Cl)cc2)c2ccccc12` [Compound 90] came in with an IC50 of 501 to 1000 nM.
`O=C(NCCc1nnc2ccccn12)c1nn(Cc2ccc(-c3ccccc3)cc2)c2ccccc12` [Compound 410]: under setting [1], the IC50 was above 2500 nM.
`O=C(NCCc1cccnc1)c1nn(Cc2ccc(Cl)c(Cl)c2)c2ccccc12` [Compound 22]: the IC50 was below 100 nM.
For the compound `Cc1ncccc1CCNC(=O)c1cn(Cc2ccc(Cl)cc2)c2ccccc12` [Compound 152, 1-(4-chlorobenzyl)-N-(2-(2-methylpyridin-3-yl)ethyl)-1H-indole-3-carboxamide], the IC50 was below 100 nM.
Take `O=C(CS(=O)(=O)c1cn(Cc2ccc(Cl)cc2)c2ccccc12)Nc1cccc(Cl)c1` [Compound 253]: the IC50 under setting [1] lay in the range of 1000 to 2500 nM.
`N#Cc1ccc(S(=O)(=O)NC(=O)c2nn(Cc3cccc(F)c3)c3ccccc23)cc1Cl` [Compound 301]: the IC50 under setting [1] was above 2500 nM.
As for `Cc1ccccc1Cn1cc(C(=O)NCCc2cccnc2)c2ccccc21` [Compound 225], the IC50 is above 2500 nM.
`Cc1ccc(Cn2nc(C(=O)NCCc3ccccn3)c3ccccc32)cc1` [Compound 63] gave an IC50 of 100 to 500 nM.
As to `O=C(NCCc1ccccc1OC(F)(F)F)c1cn(Cc2ccc(Cl)cc2)c2ccccc12` [Compound 194], the IC50 was 501 to 1000 nM.
On the same count and under the same terms, with `Cc1cccc2nc(Cn3nc(C(=O)NCCc4nnc5ccccn45)c4ccccc43)n(C)c12` [Compound 569] the figure was 100 to 500 nM; with `Cn1ccc(CNC(=O)c2nn(Cc3ccc(Cl)cc3)c3ccccc23)cc1=O` [Compound 392], 1000 to 2500 nM; with `O=C(NCCc1nnc2ccccn12)c1nn(Cc2ccc3ccccc3c2)c2ccccc12` [Compound 432], below 100 nM.
Compound `Cc1ccc(CCNC(=O)c2nn(Cc3ccc(OC(F)F)cc3)c3ccccc23)cc1` [Compound 120] yielded an IC50 of 1000 to 2500 nM.
`O=C(NCCc1nnc2ccccn12)c1nn(CCC2CCCCC2)c2ccccc12` [Compound 402, N-(2-([1,2,4]triazolo[4,3-a]pyridin-3-yl)ethyl)-1-(2-0cyclohexylethyl)-1H-indazole-3-carboxamide] returned an IC50 of 100 to 500 nM.
The same measure, in the same setting: the figure for `N#Cc1ccc2c(C(=O)NCCc3nnc4ccccn34)nn(Cc3ccc(Cl)cc3)c2c1` [Compound 542] is below 100 nM.
Take `O=C(NCCc1nnc2ccccn12)c1nn(Cc2nc3ccccc3[nH]c2=O)c2ccccc12` [Compound 516]: the IC50 was above 2500 nM.
Take `O=C(NCCS(=O)(=O)c1ccccc1)c1nn(Cc2ccc(Cl)cc2)c2ccccc12` [Compound 407]: under setting [1], the IC50 lay in the range of 1000 to 2500 nM.
As to `O=C(NCCc1nnc2ccccn12)c1nn(Cc2cc3ccccc3s2)c2ccccc12` [Compound 558], the IC50 is below 100 nM.
Still for that read-out and setting: the figure for `O=C(NCc1cccnc1N1CCOCC1)c1nn(Cc2ccc(Cl)cc2)c2ccccc12` [Compound 395] is above 2500 nM.
The same measure, in the same setting: the figure for `O=C(NCCc1cccnc1C(F)(F)F)c1cn(Cc2ccc(Cl)cc2)c2ccccc12` [Compound 189] is 501 to 1000 nM; for `Cc1cccc2[nH]c(CCNC(=O)c3nn(Cc4ccc(Cl)cc4)c4ccccc34)nc12` [Compound 561] it is below 100 nM.
On the same count and under the same terms, the figure for `O=C(NCCc1nnc2ccccn12)c1nn(Cc2cccc3c2OCO3)c2ccccc12` [Compound 433] is 501 to 1000 nM.
`O=C(NCCc1ccc(Cl)c(F)c1)c1cn(Cc2ccc(F)cc2)c2ccccc12` [Compound 198]: the IC50 fell in the range of 501 to 1000 nM.
On the same count and under the same terms, with `O=C(NCCc1nnc2ccccn12)c1nn(Cc2ccc3occc3c2)c2ccccc12` [Compound 493] the figure was below 100 nM; with `O=C(NCCc1cncnc1)c1cn(Cc2ccc(Cl)cc2)c2ccccc12` [Compound 215], 1000 to 2500 nM.
Regarding `Cc1cccc(S(=O)(=O)NC(=O)c2nn(Cc3ccccc3C#N)c3ccccc23)c1` [Compound 260], the IC50 under setting [1] fell in the range of 501 to 1000 nM.
`Cc1ccc(CCNC(=O)c2nn(Cc3ccc(C(F)(F)F)cc3)c3ccccc23)cn1` [Compound 49] registered an IC50 of 100 to 500 nM.

These data come from patent publication US20240254089A1, “MODULATORS OF MAS-RELATED G-PROTEIN RECEPTOR X4 AND RELATED PRODUCTS AND METHODS” (ESCIENT PHARMACEUTICALS, INC., priority 2020, published 2024).
